Patent publication US6509361B1, “1,5-Diaryl substituted pyrazoles as p38 kinase inhibitors” (Pharmacia Corporation, priority 2001, dated 2003)

Key:
[1] = tested on: TNF-α released by U937 cells (human histiocytic lymphoma cell line); experiment: U937 Cell Assay: LPS stimulation of TNF production by U937 cells, ELISA; format: cell-based; settings: U-937, differentiated U937 cells, LPS 100 ng/ml, 4 hour incubation
Protocol: Maintenance and Differentiation of the U937 Human Histiocytic Lymphoma Cell Line:
U937 cells (ATCC) were propagated in RPMI 1640 containing 10% fetal bovine serum, 100 IU/ml penicillin, 100 μg/ml streptomycin, and 2 mM glutamine (Gibco). Fifty million cells in 100 ml media were induced to terminal monocytic differentiation by 24 hour incubation with 20 ng/ml phorbol 12-myristate 13-acetate (Sigma). The cells were washed by centrifugation (200×g for 5 min) and resuspended in 100 ml fresh medium. After 24-48 hours, the cells were harvested, centrifuged, and resuspended in culture medium at 2 million cells/ml.
LPS Stimulation of TNF Production by U937 Cells:
U937 cells (0.1 ml, 2 million/ml) were incubated with 0.1 ml compound (0.004-50 μM, final concentration) for 1 hour in 96 well microtiter plates. Compounds were prepared as 10 mM stock solutions in DMSO and diluted in culture medium to yield a final DMSO concentration of 0.1% in the cell assay. LPS (E. coli, 100 ng/ml final concentration) was then added at a volume of 0.02 ml. After 4 hour incubation at 37° C., the amount of TNF-α released in the culture medium was quantitated by ELISA. Inhibitory potency is expressed as IC50 (μM).

[2] = tested on: TNF-a (LPS-stimulated human peripheral blood mononuclear cells); experiment: TNF Cell Assay: LPS stimulation of human PBM cells, TNF-a by ELISA; format: cell-based; settings: PBMC, LPS 20 ng/ml, overnight 37° C., compound 10-0.41 μM
Protocol: Method of Isolation of Human Peripheral Blood Mononuclear Cells:
Human whole blood was collected in Vacutainer tubes containing EDTA as an anticoagulant. A blood sample (7 ml) was carefully layered over 5 ml PMN Cell Isolation Medium (Robbins Scientific) in a 15 ml round bottom centrifuge tube. The sample was centrifuged at 450-500×g for 30-35 minutes in a swing out rotor at room temperature. After centrifugation, the top band of cells were removed and washed 3 times with PBS w/o calcium or magnesium. The cells were centrifuged at 400×g for 10 minutes at room temperature. The cells were resuspended in Macrophage Serum Free Medium (Gibco BRL) at a concentration of 2 million cells/ml.
LPS Stimulation of Human PBMS:
PBM cells (0.1 ml, 2 million/ml) were co-incubated with 0.1 ml compound (10-0.41 μM, final concentration) for 1 hour in flat bottom 96 well microtiter plates. Compounds were dissolved in DMSO initially and diluted in TCM for a final concentration of 0.1% DMSO. LPS (Calbiochem, 20 ng/ml, final concentration) was then added at a volume of 0.010 ml. Cultures were incubated overnight at 37° C. Supernatants were then removed and tested by ELISA for TNF-a and IL1-b. Viability was analyzed using MTS. After 0.1 ml supernatant was collected, 0.020 ml MTS was added to remaining 0.1 ml cells. The cells were incubated at 37° C. for 2-4 hours, then the O.D. was measured at […].

[3] = biological target: T1, human p38 kinase alpha (Homo sapiens, UniProt Q16539); experiment: p38 Kinase Assay (in vitro; PHAS-I/32P-ATP format or EGFRP/33P-ATP format); format: biochemical; settings: activated human p38 kinase alpha, 50 μM unlabeled ATP; table does not say which of the two assay formats
T1 construct: The coding region of the human p38a cDNA was obtained by PCR-amplification from RNA isolated from the human monocyte cell line THP.1; GST (N); made in house; host or cells: E. coli DH10B
T1 sequence (Q16539 whole entry): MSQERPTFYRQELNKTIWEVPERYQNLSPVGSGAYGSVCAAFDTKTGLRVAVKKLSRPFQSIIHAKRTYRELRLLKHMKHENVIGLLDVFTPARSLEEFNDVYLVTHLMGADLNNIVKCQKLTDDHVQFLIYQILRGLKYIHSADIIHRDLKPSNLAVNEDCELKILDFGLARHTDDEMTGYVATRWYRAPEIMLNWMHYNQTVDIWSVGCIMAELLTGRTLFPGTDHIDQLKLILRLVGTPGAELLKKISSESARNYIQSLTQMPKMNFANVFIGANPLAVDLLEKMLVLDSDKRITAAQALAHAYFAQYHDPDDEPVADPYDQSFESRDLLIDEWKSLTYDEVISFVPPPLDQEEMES
Protocol: The coding region of the human p38a cDNA was obtained by PCR-amplification from RNA isolated from the human monocyte cell line THP.1. First strand cDNA was synthesized from total RNA as follows: 2 μg of RNA was annealed to 100 ng of random hexamer primers in a 10 μl reaction by heating to 70° C. for 10 minutes followed by 2 minutes on ice. cDNA was then synthesized by adding 1 μl of RNAsin (Promega, Madison Wis.), 2 μl of 50 mM dNTP's, 4 μl of 5×buffer, 2 μl of 100 mM DTT and 1 μl (200 U) of Superscript II™ […] reverse transcriptase. Random primer, dNTP's and Superscript™ reagents were all purchased from Life-Technologies, Gaithersburg, Mass. The reaction was incubated at 42° C. for 1 hour. Amplification of p38 cDNA was performed by aliquoting 5 μl of the reverse transcriptase reaction into a 100 μl PCR reaction containing the following: 80 μl dH2O, 2 μl 50 mM dNTP's, 1 μl each of forward and reverse primers (50 pmol/μl), 10 μl of 10× buffer and 1 μl Expand™ polymerase (Boehringer Mannheim). The PCR primers incorporated Bam HI sites onto the 5′ and 3′ end of the amplified fragment, and were purchased from Genosys. The forward and reverse primers were 5′-[…]-3′ and 5′[…]-3′, respectively. The PCR amplification was carried out in a DNA Thermal Cycler (Perkin Elmer) by repeating 30 cycles of 94° C. for 1 minute, 60° C. for 1 minute and 68° C. for 2 minutes. After amplification, excess primers and unincorporated dNTP's were removed from the amplified fragment with a Wizard™ PCR prep (Promega) and digested with Bam HI (New England Biolabs). The Bam HI digested fragment was ligated into BamHI digested pGEX 2T plasmid DNA (PharmaciaBiotech) using T-4 DNA ligase (New England Biolabs) as described by T. Maniatis, Molecular Cloning: A Laboratory Manual, 2nd ed. (1989). The ligation reaction was transformed into chemically competent E. coli DH10B cells purchased from Life-Technologies following the manufacturer's instructions. Plasmid DNA was isolated from the resulting bacterial colonies using a Promega Wizard™ miniprep kit. Plasmids containing the appropriate Bam HI fragment were sequenced in a DNA Thermal Cycler (Perkin Elmer) with Prism™ (Applied Biosystems Inc.). cDNA clones were identified that coded for both human p38a isoforms (Lee et al. Nature 372, 739). One of the clones which contained the cDNA for p38a-2 (CSBP-2) inserted in the cloning site of pGEX 2T, 3′ of the GST coding region was designated pMON 35802. The sequence obtained for this clone is an exact match of the cDNA clone reported by Lee et al. This expression plasmid allows for the production of a GST-p38a fusion protein.
Expression of Human p38a:
GST/p38a fusion protein was expressed from the plasmid pMON 35802 in E. coli, stain DH10B (Life Technologies, Gibco-BRL). Overnight cultures were grown in Luria Broth (LB) containing […] ampicillin. The next day, 500 ml of fresh LB was inoculated with 10 ml of overnight culture, and grown in a 2 liter flask at 37° C. with constant shaking until the culture reached an absorbance of 0.8 at 600 nm. Expression of the fusion protein was induced by addition of isopropyl b-D-thiogalactosidse (IPTG) to a final concentration of 0.05 mM. The cultures were shaken for three hours at room temperature, and the cells were harvested by centrifugation. The cell pellets were stored frozen until protein purification.
Purification of p38 Kinase-α:
All chemicals were from Sigma Chemical Co. unless noted. Twenty grams of E. coli cell pellet collected from five 1 L shake flask fermentations was resuspended in a volume of PBS (140 mM NaCl, 2.7 mM KCl, 10 mM Na2HPO4, 1.8 mM KH2PO4, pH 7.3) up to 200 ml. The cell suspension was adjusted to 5 mM DTT with 2 M DTT and then split equally into five 50 ml Falcon conical tubes. The cells were sonnicated (Ultrasonics model W375) with a 1 cm probe for 3×1 minutes (pulsed) on ice. […]

SMILES | melting point | IC50 [1] | IC50 [2] | IC50 [3]
Cc1cnn(-c2ccc(F)cc2)c1-c1ccncc1 [Example 1] | 135.86 °C | ≥ 10 µM | 0.1 µM | 16.8 µM
NC(=O)c1cnn(-c2ccc(F)cc2)c1-c1ccncc1 [Example 16, 1-(4-Fluorophenyl)-5-(4-pyridinyl)-1H-pyrazole-4-carboxamide] | 215 to 216 °C | > 10 µM | > 10 µM | 7.72 µM
Cc1cccc(-n2nc(C)cc2-c2ccnc(OCc3ccccc3)c2)c1 [Example 28, 2-Bezyloxy-4-[1-(3-methylphenyl)-3-methyl-1H-pyrazol-5-yl]pyridine] | – | 2.64 µM | > 10 µM | 0.843 µM
Fc1ccc(-n2nccc2-c2ccnc(Cl)c2)cc1 [Example 45, 2-Chloro-4-[1-(4-fluorophenyl)-1H-pyrazol-5-yl]pyridine] | – | ≥ 10 µM | 8.1 µM | 1.06 µM
O=C(c1cnn(-c2ccc(F)cc2)c1-c1ccncc1)N1CCNCC1 [Example 17] | – | ≥ 10 µM | > 10 µM | 65.1 µM
Cc1cccc(-n2nc(C)cc2-c2cc[nH]c(=O)c2)c1 [Example 23, 4-[1-(3-Methylphenyl)-3-methyl-1H-pyrazol-5-yl]-2-pyridone] | 182 to 183 °C | ≥ 10 µM | 2.4 µM | 9.55 µM
Cc1cccc(-n2ncc(C)c2-c2ccncc2)c1 [Example 3] | 141.77 °C | 0.66 µM | 0.6 µM | 4.9 µM
Fc1ccc(-n2ncc(N3CCNCC3)c2-c2ccncc2)cc1 [Example 18] | – | ≥ 10 µM | > 10 µM | 35.7 µM
Cc1cccc(-n2nc(C)cc2-c2ccnc(N(C)Cc3ccccc3)c2)c1 [Example 27, 2-(N-Methylbenzylamino)-4-[1-(3-methylphenyl)-3-methyl-1H-pyrazol-5-yl]pyridine] | – | ≥ 10 µM | > 10 µM | > 100 µM

Results, then the molecule that gave them:

melting point | IC50 [1] | IC50 [2] | IC50 [3] | SMILES
128 to 130 °C | 1.65 µM | 1.7 µM | 0.5 µM | Cc1cccc(-n2nc(C)cc2-c2ccnc(C#N)c2)c1 [Example 31, 2-Cyano-4-[1-(3-methylphenyl)-3 methyl-1H-pyrazol-5-yl]pyridine]
– | 0.21 µM | 0.1 µM | 0.156 µM | Cc1cccc(-n2nc(C)cc2-c2ccnc(NCCO)c2)c1 [Example 26, 2-(2-Hydroxyethylamino)-4-[1-(3-methylphenyl)-3-methyl-1H-pyrazol-5-yl]pyridine]
86 to 87 °C | 0.05 µM | 0.02 µM | < 0.01 µM | Cc1cccc(-n2nc(C)cc2-c2ccnc(NCCc3ccccc3)c2)c1 [Example 24, 2-(Phenylethylamino)-4-[1-(3-methylphenyl)-3-methyl-1H-pyrazol-5-yl]pyridine]
– | 1.31 µM | 1.9 µM | 0.079 µM | COc1cc(-c2cc(C)nn2-c2cccc(C)c2)ccn1 [Example 22, 2-Methoxy-4-[1-(3-methylphenyl)-3-methyl-1H-pyrazol-5-yl]pyridine]
137.57 °C | 0.48 µM | 0.1 µM | 0.07 µM | Cc1cc(-c2ccnc(NCCO)c2)n(-c2ccc(Cl)cc2)n1 [Example 11]
94 to 95 °C | > 10 µM | > 10 µM | 2.97 µM | Cc1cc(-c2ccnc(C#N)c2)n(-c2ccc(F)cc2)n1 [Example 32, 2-Cyano-4-[1-(4-fluorophenyl)-3-methyl-1H-pyrazol-5-yl]pyridine]
97.15 °C | 0.72 µM | 0.2 µM | 0.07 µM | CCNc1cc(-c2cc(C)nn2-c2ccc(C)cc2)ccn1 [Example 8]
84 to 85 °C | ≥ 10 µM | 3.4 µM | 1.15 µM | Cc1cccc(-n2nc(C)cc2-c2ccnc(N(C)C)c2)c1 [Example 35, 2-(Dimethylamino)-4-[1-(3-methylphenyl)-3-methyl-1H-pyrazol-5-yl]pyridine]
105.53 °C | 0.2 µM | 0.3 µM | 0.003 µM | Cc1cc(-c2ccnc(NCc3ccccc3)c2)n(-c2ccc(Cl)cc2)n1 [Example 12]
– | ≥ 10 µM | > 10 µM | > 100 µM | CCNc1cc(-c2ccncc2)n(-c2ccc(F)cc2)n1 [Example 15]
– | 0.86 µM | 0.1 µM | 0.05 µM | Cc1cc(-c2ccnc(NCCc3ccccc3)c2)n(-c2ccc(Cl)cc2)n1 [Example 13]
126.34 °C | 17.9 µM | 0.1 µM | 0.29 µM | CNc1cc(-c2cc(C)nn2-c2ccc(C)cc2)ccn1 [Example 9]
